{"source": "patent EP4467141A1", "about": "“PYRAZOLO-QUINOLINES AS SELECTIVE INHIBITORS OF GENOTOXIC STRESS-INDUCED IKK/NF- KB PATHWAYS FOR CANCER THERAPY” (Max-Delbrück-Centrum für Molekulare Medizin in der …, priority 2023, dated 2024)", "key": {"CLK1": {"biological_target": "T1, CLK1 (Homo sapiens, UniProt P49759)", "T1 construct": "purchased Thermo Fisher Scientific", "T1 sequence (P49759 whole entry)": "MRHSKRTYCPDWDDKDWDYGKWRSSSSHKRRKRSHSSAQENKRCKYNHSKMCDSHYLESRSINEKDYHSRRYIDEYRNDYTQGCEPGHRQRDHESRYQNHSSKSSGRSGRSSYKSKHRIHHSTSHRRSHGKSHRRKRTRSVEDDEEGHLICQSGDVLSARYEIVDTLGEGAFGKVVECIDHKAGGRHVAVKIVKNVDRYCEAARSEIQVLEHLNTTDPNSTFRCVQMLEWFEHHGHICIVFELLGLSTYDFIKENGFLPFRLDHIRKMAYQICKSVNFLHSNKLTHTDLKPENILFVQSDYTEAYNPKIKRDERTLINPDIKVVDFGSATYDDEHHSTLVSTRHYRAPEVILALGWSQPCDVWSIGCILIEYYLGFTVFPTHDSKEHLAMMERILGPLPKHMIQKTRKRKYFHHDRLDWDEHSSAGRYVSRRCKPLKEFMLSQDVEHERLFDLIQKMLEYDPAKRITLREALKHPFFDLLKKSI", "assay": "Kinase panel study", "type": "biochemical", "protocol": "(§1) The Kinase panel study was entirely provided by Thermo Fisher Scientific using the two lead compounds MW01 and MW05 as well as their derivatives (MW01-E06, MW01-E10, MW01-E14, MW01-E18, MW05-E2, MW05-E3, MW05-E9 and MW05-E10. The experiment was performed using the ZLyte or Adapta protocol according to manufacturer standard operating procedures.\nBased on their similar effects in our screen and molecular analysis, MW01 and MW05 were used in comparative target deconvolution studies seeking common targets despite their distinct structures. To eliminate previously identified kinases regulating NF-κB activity, such as IKK, as possible targets of MW01 and MW05, an in vitro kinase inhibition assay was performed. […] We next investigated if any of the shared kinase targets of MW01 and MW05 play a role in genotoxic stress-induced NF-κB activity and established several criteria to narrow down pathway-relevant targets. Considering the similar NF-κB inhibition phenotypes of both compounds, we hypothesized first that the target should be shared by both lead compounds. Second, based on the CaCo2 recovery values and experimental treatment concentration of 10 µM), the putative target kinase should have a low IC50 of, at most, 2000 nM for both lead compounds in the in vitro kinase panel (Fig. 2A). Based on these criteria alone, we arrived at a relatively short list of potential targets for further analysis, leaving only PIK3CG, PIK3C2G, and CLK2 (Fig. 2B). IC50 values for PIK3C2G by both lead compounds agreed best with these criteria, but RNA expression analysis indicates high tissue specificity as well as lack of expression of this kinase in our U2-OS model cell line, which we then eliminated from further analysis (Uhlén et al., 2015). […] Table 6: Percentage of inhibition of the indicated kinases by MW01 or MW05 at either 10 µM or 1 µM. n.d. = not determined. […]"}, "CLK3": {"biological_target": "T2, CLK3 (Homo sapiens, UniProt P49761)", "T2 construct": "purchased Thermo Fisher Scientific", "T2 sequence (P49761 whole entry, canonical isoform)": "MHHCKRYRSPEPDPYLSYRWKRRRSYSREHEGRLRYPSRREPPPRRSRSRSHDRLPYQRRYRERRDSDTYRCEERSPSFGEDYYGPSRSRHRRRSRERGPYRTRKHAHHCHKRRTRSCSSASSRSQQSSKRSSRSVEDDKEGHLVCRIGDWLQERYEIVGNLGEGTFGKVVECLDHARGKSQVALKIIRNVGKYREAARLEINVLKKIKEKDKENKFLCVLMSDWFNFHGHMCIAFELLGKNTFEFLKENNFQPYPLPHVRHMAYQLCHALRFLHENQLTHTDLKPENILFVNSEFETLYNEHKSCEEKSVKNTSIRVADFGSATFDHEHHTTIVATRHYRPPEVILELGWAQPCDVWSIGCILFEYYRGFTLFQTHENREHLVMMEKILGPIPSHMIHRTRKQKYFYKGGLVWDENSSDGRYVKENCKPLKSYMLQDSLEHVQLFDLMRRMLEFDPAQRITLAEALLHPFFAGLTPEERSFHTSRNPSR", "assay": "Kinase panel study", "type": "biochemical", "conditions": "for CLK3 inhibition: in vitro kinase assay, isoform specificity; for inhibition at 10 µM: CLK3, compound at 10µM", "protocol": "as §1, with “procedures. […]” for “procedures.”"}, "[1]": {"conditions": "10000nM, read-out: Percentage of inhibition"}, "[2]": {"conditions": "CLK1, compound at 10µM, read-out: % of Inhibition"}}, "note": "Where two headings read alike, the source gives them in different places."}
{"smiles": "COc1ccc2c(c1OC)c(=O)n1c3ccc(O)cc3c3ccnc2c31", "note": "[MW01, 5-Hydroxy-10,11-dimethoxy-9H-benzo[c]indolo[3,2,1-ij][1,5]naphthyridin-9-one]", "values": [{"measurement": "inhibition at 10 µM", "setting": "CLK1; [1]", "value": 88, "unit": "%"}, {"measurement": "CLK3 inhibition", "setting": "CLK3", "value": "largely spare CLK3"}]}
{"smiles": "COc1ccc2c(c1)c1ccnc3c4nc(OC)ccc4c(=O)n2c13", "note": "[MW01-E6, 5,15-dimethoxy-1,11,14-triazapentacyclo[10.7.1,0^2,7.0^8,^20.0^13,^18]icosa-2(7),3,5,8(20),9,11,13(18),14,16-nonaen-19-one]", "values": [{"measurement": "inhibition at 10 µM", "setting": "CLK1; [2]", "value": 10, "unit": "%"}, {"measurement": "inhibition at 10 µM", "setting": "CLK3", "value": 9, "unit": "%"}]}
{"smiles": "O=c1c2cc(O)ccc2c2nccc3c4cc(O)ccc4n1c32", "note": "[MW01-E10, 5,16-dihydroxy-1,11-diazapentacyclo[10.7.1.0^2,^7.0^8,^20.0^13,^18]icosa-2(7),3,5,8(20),9,11,13(18),14,16-nonaen-19-one]", "values": [{"measurement": "inhibition at 10 µM", "setting": "CLK1; [2]", "value": 69, "unit": "%"}, {"measurement": "inhibition at 10 µM", "setting": "CLK3", "value": 35, "unit": "%"}]}
{"smiles": "COc1ccc2c(c1)c1ccnc3c4ccnc(OC)c4c(=O)n2c13", "note": "[MW01-E14, 5,17-dimethoxy-1,11,16-triazapentacyclo[10.7.1.0^2,^7.0^8,^20.0^13,^18]icosa-2(7),3,5,8(20),9,11,13(18),14,16-nonaen-19-one]", "values": [{"measurement": "inhibition at 10 µM", "setting": "CLK1; [2]", "value": 6, "unit": "%"}, {"measurement": "inhibition at 10 µM", "setting": "CLK3", "value": 7, "unit": "%"}]}
{"smiles": "O=c1c2cnccc2c2nccc3c4cc(O)ccc4n1c32", "note": "[MW01-E18, 5-hydroxy-1,11,16-triazapentacyclo[10.7.1.0^2,^7.0^8,^20.0^13,^18]icosa-2(7),3,5,8(20),9,11,13(18),14,16-nonaen-19-one]", "values": [{"measurement": "inhibition at 10 µM", "setting": "CLK1; [2]", "value": 61, "unit": "%"}, {"measurement": "inhibition at 10 µM", "setting": "CLK3", "value": 35, "unit": "%"}]}
{"smiles": "COc1ccc2cc3c(N)nn(C(=O)c4cccc(N(C)C)c4)c3nc2c1", "note": "[MW05, (3-Amino-7-methoxypyrazolo[3,4-b]quinolin-1-yl)-[3-(dimethylamino)phenyl]methanone]", "values": [{"measurement": "inhibition at 10 µM", "setting": "CLK1; [1]", "value": 73, "unit": "%"}, {"measurement": "CLK3 inhibition", "setting": "CLK3", "value": "largely spare CLK3"}]}
{"smiles": "COc1ccc2nc3c(cc2c1)c(N)nn3C(=O)c1cccc(N(C)C)c1", "note": "[MW05-E2, 1-[3-(dimethylamino)benzoyl]-6-methoxy-1H-pyrazolo[3,4-b]quinolin-3-amine]", "values": [{"measurement": "inhibition at 10 µM", "setting": "CLK1; [2]", "value": 16, "unit": "%"}, {"measurement": "inhibition at 10 µM", "setting": "CLK3", "value": 5, "unit": "%"}]}
